# Structures can show the parent of a compound that is named as a salt.
# Tests used:
# [1] = tested on: Jurkat cells; experiment: Inhibition of proliferation of Jurkat cells (CellTiter-Glo, 72 hour); type: cell-based, human; conditions: 10 μM to 316 pM
# Method: Jurkat cells are a cell line established from a human T cell leukemia. Representative compounds of the invention were tested at different concentrations (from 10 μM to 316 pM; 0.5 log serial dilutions) for their ability to inhibit the proliferation of Jurkat cells. Known CDK inhibitors flavopiridol and triptolide were used as positive controls. Cells were grown in RPMI 1640+10% FBS+1% Glutamax. The cells were supplemented with FBS (Life Technologies) and 100 U·mL^− penicillin, 100 μg·mL^− streptomycin (Invitrogen) and cultured at 37° C. in a humidified chamber in the presence of 5% CO2. Proliferation assays were conducted over a 72 hour time period. CellTiter-Glo® (Promega Corporation, Madison, Wis. USA) was used to assess the anti-proliferative effects of the compounds following manufacturer's directions and utilizing the reagents supplied with the CellTiter-Glo® kit. In this table, “A” represents an IC50 of less than 500 nM; “B” an IC50 of between 500 nM and 5 μM; and “C” an IC50 of greater than 5 μM.
# [2] = target: T1, CDK7 (Homo sapiens, UniProt P50613); experiment: CDK7 kinase activity, Adapta kinase assay (Life Technologies); type: biochemical; conditions: Adapta kinase assay at Life Technologies; 10 μM down to 0.514 nM, 3-fold serial dilutions; read-out: CDK7 Inhibition (IC50)
# T1 construct: purchased Life Technologies (Adapta kinase assay service)
# Method: Compounds of the invention were assayed for CDK7 activity at Life Technologies™ (Grand Island, N.Y.) using their commercially available Adapta® kinase assay services. Compounds were tested at concentrations ranging from 10 μM down to 0.514 nM in a series of 3-fold serial dilutions. Details of these assays, including substrates used, are available on the Life Technologies web site (http://www.lifetechnologies.com/us/en/home/life-science/drug-discovery/target-and-lead-identification-and-validation/kinasebiology/kinase-activity-assays.html).
# [3] = tested on: A673 cells; experiment: Inhibition of proliferation of A673 cells (CyQUANT, 72 hour); type: cell-based, human; conditions: Homo sapiens, 72 hour proliferation
# Method: A673 cells are a cell line derived from human muscle Ewing's sarcoma. Representative compounds of the invention were tested at different concentrations (from 4 μM to 126.4 pM; 0.5 log serial dilutions) for their ability to inhibit the proliferation of A673 cells. Known CDK inhibitors flavopiridol and triptolide were used as positive controls. Cells were grown in Dulbecco's Modified Eagle's Medium, +10% FBS+1 mM Sodium Pyruvate. The cells were cultured at 37° C. in a humidified chamber in the presence of 5% CO2. Proliferation assays were conducted over a 72 hour time period. CyQUANT® (Life Technologies, Chicago, Ill. USA) was used to assess the anti-proliferative effects of the compounds following manufacturer's directions and utilizing the reagents supplied with the CyQUANT® kit. In this table, “A” represents an IC50 of less than 500 nM; “B” an IC50 of between 500 nM and 5 μM; and “C” an IC50 of greater than 5 μM.
# T1 sequence (P50613 whole entry): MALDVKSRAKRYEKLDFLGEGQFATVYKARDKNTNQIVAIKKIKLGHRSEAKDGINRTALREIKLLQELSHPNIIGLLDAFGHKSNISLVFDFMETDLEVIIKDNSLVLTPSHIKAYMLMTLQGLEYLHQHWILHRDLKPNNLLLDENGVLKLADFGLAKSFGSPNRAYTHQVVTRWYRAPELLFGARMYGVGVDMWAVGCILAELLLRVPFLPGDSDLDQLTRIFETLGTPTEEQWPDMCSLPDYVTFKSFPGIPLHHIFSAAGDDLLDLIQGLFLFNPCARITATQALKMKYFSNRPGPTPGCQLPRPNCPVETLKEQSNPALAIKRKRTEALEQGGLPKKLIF
# T1 sequence (P51946 whole entry partner): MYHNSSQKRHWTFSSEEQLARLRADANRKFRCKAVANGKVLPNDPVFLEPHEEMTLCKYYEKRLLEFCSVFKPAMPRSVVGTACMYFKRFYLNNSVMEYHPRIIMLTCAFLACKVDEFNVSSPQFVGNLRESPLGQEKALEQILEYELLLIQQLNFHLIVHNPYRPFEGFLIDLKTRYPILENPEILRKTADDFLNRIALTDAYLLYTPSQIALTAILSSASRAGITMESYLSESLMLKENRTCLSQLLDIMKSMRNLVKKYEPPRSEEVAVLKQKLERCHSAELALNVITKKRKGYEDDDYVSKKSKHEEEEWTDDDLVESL
# T1 sequence (P51948 whole entry partner): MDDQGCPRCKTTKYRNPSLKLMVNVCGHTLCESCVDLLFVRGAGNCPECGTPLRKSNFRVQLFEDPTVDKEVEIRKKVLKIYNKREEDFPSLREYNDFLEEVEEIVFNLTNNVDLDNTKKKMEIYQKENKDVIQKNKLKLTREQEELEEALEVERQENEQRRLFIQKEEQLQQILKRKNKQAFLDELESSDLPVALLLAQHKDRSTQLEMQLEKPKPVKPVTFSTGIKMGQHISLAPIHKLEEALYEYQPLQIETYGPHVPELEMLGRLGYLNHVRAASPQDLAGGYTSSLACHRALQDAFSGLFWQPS
SMILES,IC50 ([1]; Homo sapiens) [nM],IC50 [2] [nM],IC50 [1] [nM],IC50 [3] [nM]
"CN(C)C/C=C/C(=O)NCCc1cc2ccc(Nc3ncc(Cl)c(-c4c[nH]c5ccccc45)n3)cc2[nH]1 [Compound 175, (E)-N-(2-(6-(5-chloro-4-(1H-indol-3-yl)pyrimidin-2-ylamino)-1H-indol-2-yl)ethyl)-4-(dimethylamino)but-2-enamide]",< 500,< 100,–,–
"C=CC(=O)NC12CC(C(=O)Nc3cccc(Nc4ncc(Cl)c(-c5c[nH]c6ccccc56)n4)c3)(C1)C2 (racemic) [Compound 108, N-(3-{[5-chloro-4-(1H-indol-3-yl)pyrimidin-2-yl]amino}phenyl)-3-(prop-2-enamido)bicyclo[1.1.1]pentane-1-carboxamide]",–,> 1000,–,–
"CN(C)C/C=C/C(=O)N[C@H]1CC[C@@H](C(=O)Nc2cccc(Nc3ncc(Cl)c(-c4c[nH]c5ccccc45)n3)c2)CC1 [Compound 101, (Cis,E)-N-(3-(5-chloro-4-(1H-indol-3-yl)pyrimidin-2-ylamino)phenyl)-4-(4-(dimethylamino)but-2-enamido)cyclohexanecarboxamide]",> 5000,< 100,–,–
"C=CC(=O)N1CCCC(CN(C(=O)C=C)[C@H]2CC[C@@H](Nc3ncc(Cl)c(-c4c[nH]c5ccccc45)n3)CC2)C1 (single isomer, unassigned) [191-2]",–,> 1000,> 5000,–
"C=CC(=O)N(C)[C@H]1CCC[C@@H](Nc2ncc(Cl)c(-c3c[nH]c4ccccc34)n2)C1 [Compound 171, N-((1S,3R)-3-(5-chloro-4-(1H-indol-3-yl)pyrimidin-2-ylamino)cyclohexyl)-N-methylacrylamide]",< 500,< 100,–,–
"C=CC(=O)N1CCN(C[C@@H]2CCC[C@H](Nc3ncc(Cl)c(-c4c[nH]c5ccccc45)n3)C2)CC1 [Compound 204, 1-(4-(((1R,3S)-3-((5-chloro-4-(1H-indol-3-yl)pyrimidin-2-yl)amino)cyclohexyl)methyl)-piperazin-1-yl)prop-2-en-1-One]",< 500,< 100,–,–
"C=CC(=O)N1CCC(CN2CCC(Nc3ncc(Cl)c(-c4c[nH]c5ccccc45)n3)CC2)CC1 [Compound 141, 1-(4-((4-((5-chloro-4-(1H-indol-3-yl)pyrimidin-2-yl)amino)piperidin-1-yl)methyl)piperidin-1-yl)prop-2-en-1-One]",< 500,< 100,–,–
"CN(C)C/C=C/C(=O)N1CCC[C@H](C(=O)Nc2cccc(Nc3ncc(Cl)c(-c4c[nH]c5ccccc45)n3)c2)C1 [Compound 104, (3S,E)-N-(3-(5-chloro-4-(1H-indol-3-yl)pyrimidin-2-ylamino)phenyl)-1-(4-(dimethylamino)but-2-enoyl)piperidine-3-carboxamide]",500 to 5000,< 100,–,–
"O=C(Nc1cccc(Nc2ncc(Cl)c(-c3c[nH]c4ccccc34)n2)c1)[C@@H]1CCCNC1 [Compound 1004, (3R)—N-(3-(5-chloro-4-(1H-indol-3-yl)pyrimidin-2-ylamino)phenyl)piperidine-3-carboxamide]",500 to 5000,< 100,–,–
"C=CC(=O)N[C@H]1CCC[C@@H](Nc2ncc(Cl)c(-c3c[nH]c4ccccc34)n2)C1 [Compound 170, N-((1S,3R)-3-(5-chloro-4-(1H-indol-3-yl)pyrimidin-2-ylamino)cyclohexyl)acrylamide]",500 to 5000,< 100,–,–
"O=C(N[C@H]1CCC[C@@H](Nc2ncc(Cl)c(-c3c[nH]c4ccccc34)n2)C1)C1CCN(C(=O)/C=C/CN2CCOCC2)CC1 [Compound 202-1, N-((1S,3R)-3-((5-chloro-4-(1H-indol-3-yl)pyrimidin-2-yl)amino)cyclohexyl)-1-((E)-4-morpholinobut-2-enoyl)piperidine-4-carboxamide]",500 to 5000,> 1000,–,–
"CN(C)C/C=C/C(=O)NCC(F)(F)C(=O)N[C@H]1CCC[C@@H](Nc2ncc(Cl)c(-c3c[nH]c4ccccc34)n2)C1 [Compound 111, (E)-N-(3-((1S,3R)-3-(5-chloro-4-(1H-indol-3-yl)pyrimidin-2-ylamino)cyclohexlamino)-2,2-difluoro-3-oxopropyl)-4-(dimethylamino)but-2-enamide]",< 500,< 100,–,–
C=CC(=O)N1CCC(O)(CN(C)[C@H]2CCC[C@@H](Nc3ncc(Cl)c(-c4c[nH]c5ccccc45)n3)C2)CC1 [Compound 225],–,100 to 1000,> 5000,–
"CN(C)C/C=C/C(=O)N[C@H]1CC[C@H](C(=O)Nc2cccc(Nc3ncc(Cl)c(-c4c[nH]c5ccccc45)n3)c2)CC1 [Compound 102, (trans,E)-N-(3-(5-chloro-4-(1H-indol-3-yl)pyrimidin-2-ylamino)phenyl)-4-(4-(dimethylamino)but-2-enamido)cyclohexanecarboxamide]",500 to 5000,< 100,–,–
"C=CC(=O)N1CCN(C[C@H]2CCC[C@@H](Nc3ncc(Cl)c(-c4c[nH]c5ccccc45)n3)C2)CC1 [Compound 129, 1-(4-(((1S,3R)-3-((5-chloro-4-(1H-indol-3-yl)pyrimidin-2-yl)amino)cyclohexyl)methyl)piperazin-1-yl)prop-2-en-1-One]",–,< 100,–,< 500

# The next lines start with results.
IC50 ([1]; Homo sapiens) [nM],IC50 [2] [nM],IC50 [1] [nM],SMILES,IC50 [3] [nM]
500 to 5000,–,–,"Nc1ccc(C(=O)N[C@H]2CCC[C@@H](Nc3ncc(Cl)c(-c4c[nH]c5ccccc45)n3)C2)nn1 [Compound 1027, 6-amino-N-((1S,3R)-3-(5-chloro-4-(1H-indol-3-yl)pyrimidin-2-ylamino)cyclohexyl)pyridazine-3-carboxamide]",–
–,< 100,500 to 5000,CN(C)CC=CC(=O)N1CCC(CNC2CCC(Nc3ncc(Cl)c(-c4c[nH]c5ccccc45)n3)CC2)CC1 (centres unmarked) [compound 196],–
500 to 5000,< 100,–,"O=C(Nc1cccc(Nc2ncc(Cl)c(-c3c[nH]c4ccccc34)n2)c1)C1CCNCC1 [Compound 1006, N-(3-(5-chloro-4-(1H-indol-3-yl)pyrimidin-2-ylamino)phenyl)piperidine-4-carboxamide]",–
–,< 100,500 to 5000,CN(C)CC=CC(=O)N1CCC(CNC2CCC(Nc3ncc(Cl)c(-c4c[nH]c5ccccc45)n3)CC2)CC1 (centres unmarked) [compound 197],–
500 to 5000,–,–,"Nc1nc(C(=O)N[C@H]2CCC[C@@H](Nc3ncc(Cl)c(-c4c[nH]c5ccccc45)n3)C2)cs1 [Compound 1026, 2-amino-N-((1S,3R)-3-(5-chloro-4-(1H-indol-3-yl)pyrimidin-2-ylamino)cyclohexyl)thiazole-4-carboxamide]",–
–,–,500 to 5000,CN(C)CCCC(=O)Nc1ccc(C(=O)Nc2cccc(Nc3ncc(Cl)c(-c4c[nH]c5ccccc45)n3)c2)nc1 [compound 1023],–
500 to 5000,–,–,"Nc1ccc(C(=O)N[C@H]2CCC[C@@H](Nc3ncc(Cl)c(-c4c[nH]c5ccccc45)n3)C2)cn1 [Compound 1025, 6-amino-N-((1S,3R)-3-(5-chloro-4-(1H-indol-3-yl)pyrimidin-2-ylamino)cyclohexyl)nicotinamide]",–
–,< 100,–,"NCC(F)(F)C(=O)N[C@H]1CCC[C@@H](Nc2ncc(Cl)c(-c3c[nH]c4ccccc34)n2)C1 [Compound 1010, 3-amino-N-((1S,3R)-3-(5-chloro-4-(1H-indol-3-yl)pyrimidin-2-ylamino)cyclohexyl)-2,2-difluoropropanamide]",–
–,< 100,–,"N#Cc1cnc(N[C@@H]2CCC[C@H](NC(=O)c3ccc(N)cn3)C2)nc1-c1c[nH]c2ccccc12 [Compound 1009, 5-amino-N-((1S,3R)-3-(5-cyano-4-(1H-indol-3-yl)pyrimidin-2-ylamino)cyclohexyl)picolinamide]",–
500 to 5000,–,–,"NCCc1cc2ccc(Nc3ncc(Cl)c(-c4c[nH]c5ccccc45)n3)cc2[nH]1 [Compound 1028, 2-(2-aminoethyl)-N-(5-chloro-4-(1H-indol-3-yl)pyrimidin-2-yl)-1H-indol-6-amine.HCl]",–
500 to 5000,–,–,"Nc1ccc(C(=O)Nc2cccc(Nc3ncc(Cl)c(-c4c[nH]c5ccccc45)n3)c2)cn1 [Compound 1024, 6-amino-N-(3-(5-chloro-4-(1H-indol-3-yl)pyrimidin-2-ylamino)phenyl)nicotinamide]",–
500 to 5000,–,–,"CN(C)CCCC(=O)NCCc1cc2ccc(Nc3ncc(Cl)c(-c4c[nH]c5ccccc45)n3)cc2[nH]1 [Compound 1029, N-(2-(6-(5-chloro-4-(1H-indol-3-yl)pyrimidin-2-ylamino)-1H-indol-2-yl)ethyl)-4-(dimethylamino)butanamide]",–
